In data set [1] the test system is EV71 BrCr strain (VR-1775, genotype A). Briefly: CPE inhibition assay for anti-EV71, BrCr strain. Type of data set: cell-based, enterovirus 71 (EV71). The note with it: Enterovirus A, read-out: BrCr Strain IC50. As to the method: (§1) Thus, all newly synthesized BBR analogues were screened for their anti-EV71 potencies in African green monkey kidney (Vero) cells taking BBR as the positive control. EV71 strains used in the present study include different genotype strains, such as H strain (VR-1432, genotype C2), BrCr strain (VR-1775, genotype A), and JS-52 and SHZH98 (genotype C4). The potency against EV71 strains above mentioned of each tested compound was evaluated by the combination of its IC50 and selectivity index (SI) value as the important therapeutic indication.
(§2) Vero cells were purchased from the American Type Culture Collection (ATCC, […], MD, USA), and were cultured in Minimum Essential Medium (MEM) supplemented with 10% fetal bovine serum (FBS) (GIBCO, Grand Island, NY, USA) and antibiotics (100 U/mL penicillin and […] streptomycin) at 37 °C in a 5% CO2 incubator. EV71 strain SHZH98 isolated from the throat swab sample of an HFMD case occurring in 1998 in China was kindly provided by Dr. Qi Jin (Institute of Pathogen Biology, Chinese Academy of Medical Science and Peking Union Medical School, Beijing, China), and JS-52 strain was a kind gift from Dr. Xiangzhong Ye (Beijing Wantai Biological Pharmacy Enterprise Co., Ltd., Beijing, China). The EV71 BrCr and H strains were purchased from the ATCC. All of EV71 strains were passaged in Vero cells.
(§3) The anti-EV71 activities of all tested compounds were detected by the virus-induced CPE assay. Briefly, cells (3 × 10^4 cells/well) were plated into 96-well culture plates and incubated for 16 h. Then, remove the medium and infected cells with EV71 of 100 × TCID50 (50% tissue culture infective doses) in serum-free medium for 1 h at 37 °C. After that, the unbound viruses were removed and various concentrations of tested compounds were supplemented for incubation of another 72 h. […] TC50 defined as the concentration that leads to the 50% of CPE which determined by the same method in 72 h. In addition, the cells were stained the cells were colored with 0.5% crystal violet in 20% ethanol for 15 min at room temperature and the cells were imaged after rinsed with PBS.

The test system of data set [2] is EV71 H strain (VR-1432, genotype C2). Put plainly: CPE inhibition assay for anti-EV71, H strain. Type of data set: cell-based, enterovirus 71 (EV71). The note with it: for IC50: Enterovirus A, read-out: H Strain IC50; for anti-EV71 activity against H strain, in words: compared with BBR. The protocol:
as §1, §2, §3

Data set [3] deals with Vero cells. Briefly: Cytotoxicity assay (CCK) in Vero cells. It is filed as cell-based, African green monkey. The following applies: for TC50 (median toxic concentration): African green monkey, 48 h. As to the method:
as §2
Cytotoxicity of all target compounds in Vero cells was analyzed by CCK (TransGen Biotech, Beijing, China) assay. In brief, cells in exponential phase (3 × 10^4 cells/well) were seeded into 96-well culture plates and incubated overnight. Then, the medium was removed and different concentrations of all target compounds were applied in duple. After 48 h incubation, the cytotoxicity of all target compounds was determined by CCK assay. The signals were read at 450 nm on Enspire (Perkin Elmer, Waltham, MA, USA). The TC50 was defined as the concentration that inhibits 50% cellular growth in comparison with the controls. It is calculated by the Reed and Muench method.

In data set [4] the test system is EV71 JS-52 strain (genotype C4). Briefly: CPE inhibition assay for anti-EV71, JS-52 strain. It is filed as cell-based, enterovirus 71 (EV71). The following applies: Enterovirus A, read-out: JS-52 Strain IC50. As to the method:
as §1, §2, §3

Data set [5] deals with EV71 SHZH98 strain (genotype C4). Briefly: CPE inhibition assay for anti-EV71, SHZH98 strain. It is filed as cell-based, enterovirus 71 (EV71). The following applies: Enterovirus A, read-out: SHZH98 Strain IC50. The protocol: as §1, §2, §3
[6] abbreviates: EV71, Vero cells, CPE, calculated on the organic part, n = 3.

Counter-ions that a name gives are not always drawn. Like-named read-outs stand apart in the source and are kept apart here. Bounds are passed on as bounds.

By melting point is commonly meant the temperature, or range, at which the solid turns liquid. In turn, `COc1ccc2cc3[n+](cc2c1OCC(=O)OCC(C)C)CCc1cc2c(cc1-3)OCO2` (as salt: chloride) [2b, 2,3-Methylenedioxy-9-isobutyloxyformylmethylenoxy-10-methoxy protoberberine chloride] gave a melting point of 232 to 234 °C.
Take `COc1ccc2cc3[n+](cc2c1OCC(=O)C(C)(C)C)CCc1cc2c(cc1-3)OCO2` (as salt: chloride) [2c, 2,3-Methylenedioxy-9-pivalylmethylenoxy-10-methoxy protoberberine chloride]: the melting point fell in the range of 242 to 244 °C.
As to `COc1ccc2cc3[n+](cc2c1OCC(=O)c1ccc(C)cc1)CCc1cc2c(cc1-3)OCO2` (as salt: chloride) [2e, 2,3-Methylenedioxy-9-p-tolylformylmethylenoxy-10-methoxy protoberberine chloride], the melting point is 219 to 221 °C.
The same measure, in the same setting: the result for `COc1cccc(C(=O)COc2c(OC)ccc3cc4[n+](cc23)CCc2cc3c(cc2-4)OCO3)c1` (as salt: chloride) [2f, 2,3-Methylenedioxy-9-m-methoxyphenylformylmethylenoxy-10-methoxy protoberberine chloride] reads 214 to 216 °C; that for `COc1ccc2cc3[n+](cc2c1OCC(=O)c1ccc(C(F)(F)F)cc1)CCc1cc2c(cc1-3)OCO2` (as salt: chloride) [2g, 2,3-Methylenedioxy-9-p-trifloromethylphenylformylmethylenoxy-10-methoxy protoberberine chloride], 238 to 240 °C; that for `COc1ccc2cc3[n+](cc2c1OC(=O)OCc1ccccc1)CCc1cc2c(cc1-3)OCO2` (as salt: chloride) [2h, 2,3-Methylenedioxy-9-benzyloxyformyloxy-10-methoxy protoberberine chloride], 195 to 197 °C.
On to `CCOC(=O)Oc1c(OC)ccc2cc3[n+](cc12)CCc1cc2c(cc1-3)OCO2` (as salt: chloride) [2i, 2,3-Methylenedioxy-9-ethyloxyformyloxy-10-methoxy protoberberine chloride], for which the melting point lay within 218 to 220 °C.
The molecule `CCOC(=O)COc1c(OC)ccc2cc3[n+](cc12)CCc1cc(OC)c(OC)cc1-3` (as salt: chloride) [4a, 2,3,10-Trimethoxy-9-ethyloxyformylmethylenoxy protoberberine chloride] showed a melting point of 204 to 206 °C.
For `COc1cc2c(cc1OC)-c1cc3ccc(OC)c(OCC(=O)C(C)(C)C)c3c[n+]1CC2` (as salt: chloride) [4b, 2,3,10-Trimethoxy-9-pivalylmethylenoxy protoberberine chloride], the melting point was in the range of 227 to 229 °C.
`COc1cc2c(cc1OC)-c1cc3ccc(OC)c(OCC(=O)OCc4ccccc4)c3c[n+]1CC2` (as salt: chloride) [4c, 2,3,10-Trimethoxy-9-benzyloxyformylmethylenoxy protoberberine chloride] returned a melting point of 196 to 198 °C.
The same measure, in the same setting: the result for `COc1cc2c(cc1OC)-c1cc3ccc(OC)c(OCC(=O)c4ccc(C)cc4)c3c[n+]1CC2` (as salt: chloride) [4d, 2,3,10-Trimethoxy-9-p-tolylformylmethylenoxy protoberberine chloride] reads 228 to 230 °C; that for `COc1cccc(C(=O)COc2c(OC)ccc3cc4[n+](cc23)CCc2cc(OC)c(OC)cc2-4)c1` (as salt: chloride) [4e, 2,3,10-Trimethoxy-9-m-methoxyphenylformylmethylenoxy protoberberine chloride], 200 to 202 °C.
A word on the IC50: it is the point on the concentration scale where inhibition reaches its midpoint. With `COc1cc2c(cc1OCC(=O)C(C)(C)C)CC[n+]1cc3c(OC)c(OC)ccc3cc1-2` [5b, 2,9,10-Trimethoxy-3-pivalylmethylenoxy protoberberine chloride], the IC50 in data set [1] (setting [6]) was 34.2 µM; in data set [2] (setting [6]) it was 41.3 µM; in data set [4] (setting [6]) it was 34.2 µM; in data set [5] (setting [6]) it was 69.3 µM. The “TC50 (median toxic concentration)” value in data set [3] was found to be 83.3 µM.
For the molecule `COc1cc2c(cc1OCC(=O)OCc1ccccc1)CC[n+]1cc3c(OC)c(OC)ccc3cc1-2` [5c, 2,9,10-Trimethoxy-3-benzyloxyformylmethylenoxy protoberberine chloride], the IC50 in data set [1] (setting [6]) was 44.1 µM; in data set [2] (setting [6]), 93.7 µM; in data set [4] (setting [6]) it was 101 µM; in data set [5] (setting [6]), 123 µM. Besides, in data set [3], the “TC50 (median toxic concentration)” value is 248 µM.
Take `COc1cc2c(cc1OCC(=O)c1ccc(C)cc1)CC[n+]1cc3c(OC)c(OC)ccc3cc1-2` [5d, 2,9,10-Trimethoxy-3-p-methylphenylformylmethylenoxy protoberberine chloride]: the IC50 was greater than 15.9 µM in data set [1] (setting [6]), greater than 15.9 µM in data set [2] (setting [6]), 9.01 µM in data set [4] (setting [6]) and 12 µM in data set [5] (setting [6]). Moreover, the “TC50 (median toxic concentration)” value in data set [3] worked out at 41.0 µM.
For the molecule `COc1cccc(C(=O)COc2cc3c(cc2OC)-c2cc4ccc(OC)c(OC)c4c[n+]2CC3)c1` [5e, 2,9,10-Trimethoxy-3-m-methoxyphenylformylmethylenoxy protoberberine chloride], the IC50 in data set [1] (setting [6]) was 9.2 µM; in data set [2] (setting [6]), 10.4 µM; in data set [4] (setting [6]), 8.69 µM; in data set [5] (setting [6]) it was 9.13 µM. The “anti-EV71 activity against H strain, in words” value (“anti-EV71 activity” for short) in data set [2] (Vero cells) was “ideal activities compared with BBR”. Moreover, the “cytotoxicity, in words” value in data set [3] is on record as “high cytotoxicity”. In addition, the “TC50 (median toxic concentration)” value in data set [3] turned out to be 27.6 µM.
`COc1cc2c(cc1OCC(=O)c1ccc(C(F)(F)F)cc1)CC[n+]1cc3c(OC)c(OC)ccc3cc1-2` [5f, 2,9,10-Trimethoxy-3-p-trifloromethylphenylformylmethylenoxy protober berine chloride]: the IC50 is 25.4 µM in data set [1] (setting [6]), 40.4 µM in data set [2] (setting [6]), 27 µM in data set [4] (setting [6]) and 68.4 µM in data set [5] (setting [6]). Moreover, the “anti-EV71 activity” value in data set [2] (Vero cells) was “partially or completely lost”. Besides, the “TC50 (median toxic concentration)” value in data set [3] was determined as 143 µM.
For `COc1cc2c(cc1OC(=O)OCc1ccccc1)CC[n+]1cc3c(OC)c(OC)ccc3cc1-2` [5g, 2,9,10-Trimethoxy-3-benzyloxyformyloxy protoberberine chloride], the half-maximal inhibitory concentration (IC50) in data set [1] (setting [6]) is 82.8 µM; in data set [2] (setting [6]), 143 µM; in data set [4] (setting [6]) it was 51.3 µM; in data set [5] (setting [6]), 86.7 µM. Moreover, in data set [2] (Vero cells), the “anti-EV71 activity” value is on record as “partially or completely lost”. Also, in data set [3], the “TC50 (median toxic concentration)” value came to 265 µM.
Take `COc1cc2c(cc1O)CC[n+]1cc3c(OC)c(OC)ccc3cc1-2` [JTH, jatrorrhizine, reference compound]: the IC50 in data set [1] (EV71, Vero) was greater than 147 µM; in data set [2] (EV71, Vero) it was greater than 147 µM; in data set [4] (EV71, Vero), 147 µM; in data set [5] (EV71, Vero), 147 µM. In addition, the “anti-EV71 activity” value in data set [2] (Vero cells) is “decreased activity”. For the same molecule, the “TC50 (median toxic concentration)” value in data set [3] amounted to 255 µM.
As to `COc1ccc2cc3[n+](cc2c1O)CCc1cc2c(cc1-3)OCO2` [compound 1], the IC50 in data set [1] (setting [6]) was 35.4 µM; in data set [2] (setting [6]) it was 37 µM; in data set [4] (setting [6]), 28.5 µM; in data set [5] (setting [6]) it was 32.6 µM. Further, the “anti-EV71 activity” value in data set [2] (Vero cells) is reported as “decreased activity”. In addition, the “TC50 (median toxic concentration)” value in data set [3] stood at 85.5 µM.
Turning to `COc1cc2c(cc1OC)-c1cc3ccc(OC)c(O)c3c[n+]1CC2` [compound 3], the IC50 in data set [1] (setting [6]) is 135 µM; in data set [2] (setting [6]) it was 121 µM; in data set [4] (setting [6]), 102 µM; in data set [5] (setting [6]), 132 µM. In addition, the “anti-EV71 activity” value in data set [2] (Vero cells) is “decreased activity”. The “TC50 (median toxic concentration)” value in data set [3] turned out to be 254 µM.

These data come from PMC6222558, “Synthesis and Evolution of Berberine Derivatives as a New Class of Antiviral Agents against Enterovirus 71 through the MEK/ERK Pathway and Autophagy” (Molecules : A Journal of Synthetic Chemistry and Natural …, 2018).
